# Test results as given in patent US20080194020A1, “Methods For Producing Dendritic Cells That Have Acquired Ctl-Inducing Ability” (Medical and Biological Laboratories Co., Ltd., priority 2004, published 2008).
# Entries after “also recorded” stand apart in the source; their conditions may differ.
# Experiments:
# Type in all cases: cell-based, mouse
# [1] = system: bone marrow-derived dendritic cells (BMDCs); assay: MHC class II antigen presentation by BMDCs to OT-II CD4+ T cells (IL-2 ELISA); details: HSP90 10 μg/mL added at the same time as OVA (0, 50 or 250 μg/mL)
# Experimental: Mouse bone marrow-derived dendritic cells (BMDCs) were prepared as follows: cells were taken out from mouse bone marrow and cultured for five days in RPMI medium containing GM-CSF and 5% FCS, during which the medium was partially exchange. This culturing method leads to growth of macrophages, dendritic cells, and such; therefore, dendritic cells alone were collected using CD11c magnetic beads, and these cells were used as bone marrow-derived dendritic cells (BMDCs).
# The bone marrow-derived dendritic cells (BMDCs) prepared as above or the mouse dendritic cell line DC2.4 cells were plated in a 96-well plate at 5×10^4 cells per well. Next, in the presence of 50 μg/mL of polynyxin B, which is an endotoxin inhibitor, OVA (0, 50, or 250 μg/mL)and HSP90 (0 or 10 μg/mL) were added, the total fluid volume was adjusted to 200 μL, and this was cultured overnight at 37° C. Since endotoxin is known to activate DCs, polymyxin B was added to eliminate the effects of its contamination of reagents, equipment, and such. After culturing, the aforementioned cells in the wells were washed twice to remove the remaining OVA and HSP90 that were not taken up by the cells. […] The wells were centrifuged, the supernatant was collected, and the amount of IL-2 in the supernatant was measured by ELISA.
# BMDCs = assay: MHC class I antigen presentation by BMDCs to OT-I CD8+ cells; details: BMDCs incubated with OVA in the presence or absence of HSP90
# DC2.4 cells [2] = assay: MHC class I cross-presentation by DC2.4 cells to OT-I CD8+ T cells (IL-2 ELISA)
# Excerpt: Whether knock-down of cellular components involved in ERAD decreases the cross-presentation of exogenous OVA antigen was examined using a system for evaluating the level of antigen presentation, which uses naive CD8^+ T cells from OT-I mice and DC2.4 cells. The DC2.4 cells used as a model of dendritic cells are of the H-2Kb mouse MHC class I haplotype. OT-I (H-2Kb) mice are transgenic mice expressing a T cell receptor (TCRα and β) that recognizes an antigenic peptide (SIINFEKL) (SEQ ID NO: 15) derived from OVA presented on the H-2Kb molecules. The CD8^+ cells of OT-I mice are activated when they recognize OVA peptides presented by BMDCs derived from H-2Kb mice or by DC2.4 cells. When OVA or bOVA is incubated with and affixed onto DC2.4 cells and the cells are further incubated with naive CD8^+ T cells of OT-I mice, the amount of IL-2 produced by OT-I CD8^+ T cells serves as an index of T-cell stimulation as a result of OVA antigen presented by DC2.4 cells.
# Parental or knocked-down DC2.4 cells were pre-incubated in a culture medium supplemented with 50 μg mL^−1 polymyxin B for 30 minutes in the presence or absence of lactacystin or MG-132, and incubated with OVA (250 μg mL^−1) or SIINFEKL peptides (10 ng mL^−1) for six hours. The cells were washed, fixed with 1% paraformaldehyde, and aliquoted into microtiter plates (5×10^4 per well). 5×10^4 CD8^+ T cells purified from splenocytes of OT-1 mice using magnetic beads were added to each well and after a 24-hour incubation, the IL-2 secretion was measured by ELISA (BD Biosciences) in triplicate.
# DC2.4 cells were incubated with OVA (0, 50, or 250 μg/mL) in RPMI1640/10c% FCS for six hours at 37° C., in the presence or absence of pig-derived HSP90 (10 μg/mL). After washing away the antigen and HSP, OT-I CD8^+ T cells were added, cells were cultured overnight at 37° C., and the amount of IL-2 comprised in the supernatant was measured by the ELISA method.
# The timing of the addition of HSP90 (10 μg/mL) and OVA (250 μg/mL) to DC2.4 cells was varied, and the effect on class I antigen presentation was observed. (i) HSP90 was added first, DC2.4 cells were washed, and then OVA was added. (ii) HSP90 and OVA were added simultaneously to DC2.4 cells. (iii) OVA was added first, and after washing DC2.4 cells, HSP90 was added. The results obtained under these three conditions were compared. As a control for all these conditions, an experiment in which only OVA, but not HSP90, was added was also carried out.
# Under condition (i), HSP90 was added to DC2.4 cells, the cells were cultured for 30 minutes and then washed to remove HSP90. Next, OVA was added and the cells were cultured for three hours. Thereafter, OVA was removed by washing, and cells were cultured in just the culture medium for three hours. DC2.4 cells activated with OVA by the above procedure were plated in a 96-well plate, OT-I mouse-derived CD8^+ T cells were added to this, and after culturing overnight, the amount of IL-2 released into the supernatant was measured by ELISA.
# Under condition (ii), OVA and HSP90 were added simultaneously to DC2.4 cells, cells were cultured for three hours, then washed, and cultured in just the culture medium for three hours. Thereafter, the procedures to investigate the activation of OT-I mouse-derived CD8^+ T cells was carried out similarly to in (i) above.
# Under condition (iii), OVA was first added to DC2.4 cells, cells were cultured for three hours, and then washed to remove OVA. Next, HSP90 was added, and the cells were cultured for another three hours. The procedures that follow were carried out similarly to that of (i) and (ii). Meanwhile, timings were set such that the incubation times during the stage in which cells are in contact with OVA and the stage at which OVA has been taken up were the same under conditions (i) to (iii).
# DC2.4 cells [3] = assay: Uptake of antigenic protein into DC2.4 cells
# Experimental: Next, DC2.4 cells were incubated for a set amount of time with OVA in the presence or absence of lactacystin (LC), and OVA taken up into the cells was measured. OVA taken up into cells in the presence or absence of Hsp90 was measured similarly.
# DC2.4 cells [4] = assay: Polyubiquitination of antigenic protein taken up by DC2.4 cells (SDS-PAGE, Western blot with anti-polyubiquitin antibody); details: DC2.4 cells incubated with GST-OVA in the presence or absence of Hsp90
# Experimental: There are reports that when the KDEL sequence (Lys-Asp-Glu-Leu) (SEQ ID NO: 3), an endoplasmic reticulum localization sequence, is added to the carboxyl terminus of a protein localized in the ER lumen, the protein is repeatedly transported between the ER and Golgi apparatus, and ERAD of that protein is promoted. Therefore, DC2.4 cells were made to take up OVA with KDEL (SEQ ID NO: 3) added to its C-terminus, and OVA that was polyubiquitinated after uptake was observed by SDS-PAGE and Western blotting. OVA to which a KDEL sequence (SEQ ID NO: 3) was added was constructed and expressed as follows: using a plasmid comprising a DNA sequence encoding OVA as a template, PCR was performed using oligo-1 (SEQ ID NO: 10) and oligo-2 (SEQ ID NO: 11) as primers. The amplified PCR product of approximately 1100 bp was introduced into a pCR-Blunt vector (Invitrogen) to obtain vector-1. Oligo-3 (SEQ ID NO: 12) and oligo-4 (SEQ ID NO: 13) were annealed, and the obtained gene fragment of approximately 100 bp was introduced into the pCR-Blunt vector to obtain vector-2. Vector-2 was digested with SpeI, the obtained gene fragment of approximately 130 bp was introduced into vector-1 that had been digested with NheI to obtain vector-3. An approximately 1250-bp gene fragment (OVA-KDEL) obtained when vector-3 was digested with BamHI/SpeI was introduced into a vector for gene expression, and then expressed. […]
substance,measurement,setting,value
"HSP90: pig-derived HSP90, molecular chaperone (heat shock protein) of about 90 kDa; porcine sequence SEQ ID NO: 1",effect on IL-2 production by OT-II CD4+ T cells (MHC class II presentation),[1],not enhanced
same,effect on OVA antigen presentation to OT-I CD8+ cells,BMDCs,increase antigen presentation
same,effect on OVA antigen presentation to OT-I CD8+ T cells (IL-2),"DC2.4 cells [2]; DC2.4 cells, OVA 0, 50 or 250 μg/mL, six hours, pig-derived HSP90 10 μg/mL versus OVA alone",a stronger antigen presentation was observed; also recorded: increase antigen presentation
same,Hsp90 concentration dependence of antigen presentation ability,"DC2.4 cells [2]; DC2.4 cells, Hsp90 10 μg/mL and 50 μg/mL",increased in an Hsp90 concentration-dependent manner; also recorded: antigen-presenting ability increases in a manner dependent on Hsp90 concentration
same,effect on IL-2 production versus OVA-only control,"DC2.4 cells [2]; condition (i): HSP90 added first, cells washed, then OVA",cannot be observed unless it is added simultaneously
same,effect on IL-2 production versus OVA-only control,DC2.4 cells [2]; condition (ii): HSP90 10 μg/mL and OVA 250 μg/mL added simultaneously to DC2.4 cells,increase in the amount of IL-2 production
same,effect on IL-2 production versus OVA-only control,"DC2.4 cells [2]; condition (iii): OVA added first, cells washed, then HSP90",not to yield any effect
same,effect on OVA taken up into cells,DC2.4 cells [3]; DC2.4 cells incubated with OVA in the presence or absence of Hsp90 and lactacystin,take up OVA into cells more efficiently; also recorded: uptake of OVA increased
same,effect on amount of GST-OVA taken up,"DC2.4 cells [3]; FIG. 10 lane 4 versus lane 3, presence or absence of HSP90",the increase in the amount taken up in the presence of HSP90 is not great
same,effect on polyubiquitination of GST-OVA taken up,DC2.4 cells [4],the increase in polyubiquitination in the presence of HSP90 is very pronounced
same,effect on polyubiquitination of GST-OVA taken up,DC2.4 cells [4]; listed as Hsp90,more strongly polyubiquitinated
